# Data reported in patent publication US7138361B2, “Herbicidal heterocycles” (E. I. du Pont de Nemours and Company, priority 2000, dated 2006).
# How the values were obtained:
# Type in all cases: in vivo
# [1] = system: johnsongrass (Sorghum halepense); assay: Test C preemergence
# Summary of the method: (§1)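 Formulation: non-phytotoxic solvent mix incl. surfactant. Pre: applied right after planting. Post: 1–4-leaf seedlings. Read: visual 0–100, day 12–14, greenhouse.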
# [2] = system: corn (Zea mays); assay: Test C preemergence
# Summary of the method: as §1
# [3] = system: velvetleaf (Abutilon theophrasti); assay: Test C preemergence
# Summary of the method: as §1
# [4] = system: morningglory (Ipomoea hederacea); assay: Test C preemergence
# Summary of the method: as §1
# [5] = system: crabgrass (Digitaria sanguinalis); assay: Test C preemergence
# Summary of the method: as §1
# [6] = system: pigweed (Amaranthus retroflexus); assay: Test C preemergence
# Summary of the method: as §1
# [7] = system: Sunflower; assay: Test C preemergence; conditions: Rate 125 g/ha; scale 0 to 100, 0 no effect, 100 complete control
# [8] = system: yellow nutsedge (Cyperus esculentus); assay: Test C preemergence
# Summary of the method: as §1
# [9] = system: common ragweed (Ambrosia elatior); assay: Test C preemergence
# Summary of the method: as §1
# [10] = system: cocklebur (Xanthium strumarium); assay: Test C preemergence
# Summary of the method: as §1
# [11] = system: kochia (Kochia scoparia); assay: Test C preemergence
# Summary of the method: as §1
# [12] = system: bermudagrass (Cynodon dactylon); assay: Test C preemergence
# Summary of the method: as §1
# [13] = system: soybean (Glycine max); assay: Test C preemergence
# Summary of the method: as §1
# [14] = system: Nightshade; assay: Test C preemergence
# [15] = system: woolly cupgrass (Eriochloa villosa); assay: Test C preemergence
# Summary of the method: as §1
# [16] = system: giant foxtail (Setaria faberii); assay: Test C preemergence
# Summary of the method: as §1
# [17] = system: Surinam grass (Brachiaria decumbens); assay: Test C preemergence
# Summary of the method: as §1
# [18] = system: lambsquarters (Chenopodium album); assay: Test C preemergence
# Summary of the method: as §1
# [19] = system: goosegrass (Eleusine indica); assay: Test C preemergence
# Summary of the method: as §1
# [20] = system: rice (Oryza saliva); assay: Test C flooded paddy test; conditions: for Rice plant response rating: Flooded Paddy, scale 0 to 100, 0 no effect, 100 complete control; for Plant response rating, Rice: flooded paddy test, scale 0 to 100 (0 no effect, 100 complete control)
# Summary of the method: (§2)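 Rice and three paddy weeds were grown to the 2-leaf stage under flooded conditions, then treated and kept in a greenhouse for 12–14 days. Response was rated visually against untreated controls on a 0–100 scale, where 100 is complete control.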
# [21] = system: barnyardgrass (Echinochloa crus-galli); assay: Test C flooded paddy test; conditions: for Barnyardgrass plant response rating: Flooded Paddy, scale 0 to 100, 0 no effect, 100 complete control; for Plant response rating, Barnyardgrass: flooded paddy test, scale 0 to 100 (0 no effect, 100 complete control)
# Summary of the method: as §2
# [22] = system: Sunflower; assay: Test C preemergence; conditions: Rate 500 g/ha, visual evaluation after 12 to 14 days
# [23] = Rate 125 g/ha, scale 0 to 100, 0 no effect, 100 complete control
# [24] = preemergence, Rate 62 g/ha, scale 0 to 100
# [25] = preemergence, Rate 500 g/ha, visual evaluation after 12 to 14 days
# [26] = preemergence, Rate 250 g/ha, scale 0 to 100, 0 no effect, 100 complete control
smiles,measurement,setting,value
CC(C)(C)c1ccn(C2CCN(c3cccc(I)c3)C2=O)n1 (stereo not drawn) [Compound 88],"Plant response rating, Johnsongrass",[1]; [23],10
same,"Plant response rating, Johnsongrass",[1]; [24],10
same,"Plant response rating (0 to 100), Johnsongrass",[1]; [25],100
same,"Plant response rating, Johnsongrass",[1]; [26],40
same,"Plant response rating, Corn",[2]; [23],10
same,"Plant response rating, Corn",[2]; [24],0
same,"Plant response rating (0 to 100), Corn",[2]; [25],100
same,"Plant response rating, Corn",[2]; [26],70
same,"Plant response rating, Velvetleaf",[3]; [23],10
same,"Plant response rating, Velvetleaf",[3]; [24],0
same,"Plant response rating (0 to 100), Velvetleaf",[3]; [25],20
same,"Plant response rating, Velvetleaf",[3]; [26],10
same,"Plant response rating, Morningglory",[4]; [23],10
same,"Plant response rating, Morningglory",[4]; [24],10
same,"Plant response rating (0 to 100), Morningglory",[4]; [25],30
same,"Plant response rating, Morningglory",[4]; [26],30
same,"Plant response rating, Crabgrass",[5]; [23],100
same,"Plant response rating, Crabgrass",[5]; [24],100
same,"Plant response rating (0 to 100), Crabgrass",[5]; [25],100
same,"Plant response rating, Crabgrass",[5]; [26],100
same,"Plant response rating, Pigweed",[6]; [23],10
same,"Plant response rating, Pigweed",[6]; [24],0
same,"Plant response rating (0 to 100), Pigweed",[6]; [25],100
same,"Plant response rating, Pigweed",[6]; [26],40
same,"Plant response rating, Sunflower",[7],40
same,"Plant response rating, Nutsedge",[8]; [23],0
same,"Plant response rating, Nutsedge",[8]; [24],0
same,"Plant response rating (0 to 100), Nutsedge",[8]; [25],10
same,"Plant response rating, Nutsedge",[8]; [26],0
same,"Plant response rating, Ragweed, Common",[9]; [23],0
same,"Plant response rating, Ragweed, Common",[9]; [24],0
same,"Plant response rating (0 to 100), Ragweed, Common",[9]; [25],20
same,"Plant response rating, Ragweed, Common",[9]; [26],0
same,"Plant response rating, Cocklebur",[10]; [23],0
same,"Plant response rating, Cocklebur",[10]; [24],0
same,"Plant response rating (0 to 100), Cocklebur",[10]; [25],20
same,"Plant response rating, Cocklebur",[10]; [26],20
same,"Plant response rating, Kochia",[11]; [23],90
same,"Plant response rating, Kochia",[11]; [24],70
same,"Plant response rating (0 to 100), Kochia",[11]; [25],100
same,"Plant response rating, Kochia",[11]; [26],100
same,"Plant response rating, Bermudagrass",[12]; [23],100
same,"Plant response rating, Bermudagrass",[12]; [24],100
same,"Plant response rating (0 to 100 where 0 is no effect and 100 is complete control), Bermudagrass",[12]; [25],100
same,"Plant response rating, Bermudagrass",[12]; [26],100
same,"Plant response rating, Soybean",[13]; [23],10
same,"Plant response rating, Soybean",[13]; [24],0
same,"Plant response rating (0 to 100), Soybean",[13]; [25],30
same,"Plant response rating, Soybean",[13]; [26],10
same,"Plant response rating, Nightshade","[14]; Rate 62 g/ha, scale 0 to 100",30
same,"Plant response rating, Nightshade",[14]; [23],20
same,"Plant response rating, Nightshade","[14]; Rate 250 g/ha, scale 0 to 100, 0 no effect, 100 complete control",80
same,"Plant response rating, Cupgrass, Woolly",[15]; [23],90
same,"Plant response rating, Cupgrass, Woolly",[15]; [24],60
same,"Plant response rating (0 to 100), Cupgrass, Woolly",[15]; [25],100
same,"Plant response rating, Cupgrass, Woolly",[15]; [26],100
same,"Plant response rating, Foxtail, Giant",[16]; [23],100
same,"Plant response rating, Foxtail, Giant",[16]; [24],0
same,"Plant response rating (0 to 100), Foxtail, Giant",[16]; [25],100
same,"Plant response rating, Foxtail, Giant",[16]; [26],100
same,"Plant response rating, Surinam grass",[17]; [23],30
same,"Plant response rating, Surinam grass",[17]; [24],40
same,"Plant response rating (0 to 100), Surinam grass",[17]; [25],100
same,"Plant response rating, Surinam grass",[17]; [26],70
same,"Plant response rating, Lambsquarters",[18]; [23],100
same,"Plant response rating, Lambsquarters",[18]; [24],100
same,"Plant response rating (0 to 100), Lambsquarters",[18]; [25],100
same,"Plant response rating, Lambsquarters",[18]; [26],100
same,"Plant response rating, Goosegrass",[19]; [23],100
same,"Plant response rating, Goosegrass",[19]; [24],100
same,"Plant response rating (0 to 100), Goosegrass",[19]; [25],100
same,"Plant response rating, Goosegrass",[19]; [26],100
same,Rice plant response rating,[20]; Rate 250 g/ha,30
same,Rice plant response rating,[20]; Rate 500 g/ha,70
same,"Plant response rating, Rice",[20]; Rate 62 g/ha,0
same,"Plant response rating, Rice",[20]; Rate 125 g/ha,20
same,Barnyardgrass plant response rating,[21]; Rate 250 g/ha,100
same,Barnyardgrass plant response rating,[21]; Rate 500 g/ha,100
same,"Plant response rating, Barnyardgrass",[21]; Rate 62 g/ha,30
same,"Plant response rating, Barnyardgrass",[21]; Rate 125 g/ha,100
same,"Plant response rating (0 to 100), Sunflower",[22],20
